Laboratory results reported in US9663429B2, “Vitamin D analogues of pharmaceutical interest” (UNIVERSIDADE DE SANTIAGO DE COMPOSTELA, priority 2013, dated 2017).
pEC50, pIC50: −log10 of the molar value.

Key:
vitamin D receptor (VDR) = target: T1, vitamin D receptor (VDR) (Homo sapiens, UniProt P11473); experiment: Competitive binding to vitamin D receptor (Polarscreen VDR competitor assay, fluorescence polarisation)
T1 construct: purchased Invitrogen
T1 sequence (P11473 1-427): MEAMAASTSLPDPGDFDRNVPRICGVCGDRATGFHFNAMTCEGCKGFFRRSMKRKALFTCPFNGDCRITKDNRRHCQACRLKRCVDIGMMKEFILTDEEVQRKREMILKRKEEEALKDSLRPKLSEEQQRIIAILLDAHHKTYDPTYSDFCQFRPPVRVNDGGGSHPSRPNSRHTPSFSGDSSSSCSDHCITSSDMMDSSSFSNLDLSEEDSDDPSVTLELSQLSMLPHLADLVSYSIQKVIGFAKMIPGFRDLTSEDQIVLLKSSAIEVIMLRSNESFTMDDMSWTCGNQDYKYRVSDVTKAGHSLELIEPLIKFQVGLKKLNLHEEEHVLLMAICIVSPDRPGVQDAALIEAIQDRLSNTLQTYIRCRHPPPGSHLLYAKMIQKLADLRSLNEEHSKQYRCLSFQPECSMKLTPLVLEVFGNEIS
Experimental: FIG. 1. […] The values represent the mean of at least two experiments.
Polarised fluorescence was determined in 384-well black plates for 200 ms/well using a Mithras LB 940 device (Berthold Technologies).

MCF-7 cells [1] = experiment: 3D cell culture on matrigel (spheroid size), MCF-7; format: cell-based, human
Experimental: FIG. 7. MCF-7 cells were shown for 10 days on a matrigel bed until they formed a 3D cellular structure. […] After treatment, the spheroids were stained with DAPI (4′,6-diamino-2-phenylindole) for 1 hour and photographed under an inverted microscope with ultraviolet light. The size of these spheroids was measured and the values were represented as mean±SD in relative units. […] Those cells treated with the carrier were considered as the control value.
For 3D cell culture, a cushion of 200 μl of Matrigel (BD Biosciences) was used in each of the wells of multi-well plates of 24 wells. They were incubated at 37° C. for 20 minutes for their solidification and subsequently the cell suspension (5×10^3 cells per 100 μl volume of medium) was loaded onto the matrigel solidified and another incubation at 37° C. was performed for 30 minutes so that the cells penetrated properly on the matrigel base. 500 μl of DMEM medium were added to each well, and the cells were maintained in culture for 10 days. At the end of this time, the cells were started to be treated with each of the 5 analogues used and 1,25D.

[2] = Calcaemic effects in mice at 0.3 μg/kg; format: in vivo
Experimental: FIG. 8. […] 1,25D and the various analogues were injected intraperitoneally every 2 days for 21 days at a dose of 0.3 μg/Kg. After treatment the calcium levels in the serum were evaluated and the values were represented as mean±SD in […].
(§1) Calcium mobilization of analogues was determined in 28 male CD-1 mice (6-8 weeks old). 6 Groups of 4 mice each were established, which mice were intraperitoneally (ip) injected with 0.3 μg/kg weight of each analogue or 1,25D dissolved in sesame oil every two days for 3 weeks. A seventh group of 4 mice treated with the carrier (sesame oil) served as controls. Calcium levels in blood were determined by QuantiChomCalciumAssay Kit (BioAssaySystems, Hayward, Calif., USA). In addition, a dose-response assay was performed to assess the effect of administration of the analogues PG-403 and PG136p and hormone (1,25D) at different doses on calcium levels. This assay was performed in male mice (5 mice per group), and the doses used were: 0.1, 0.5, 1, and 5 μg/kg weight of each analogue or 1,25D, i.p. administered every two days for 21 days. In addition, a control group (mice treated with sesame oil) was used.

[3] = Dose-response assay of serum calcium in mice; format: in vivo; conditions: for Serum calcium versus controls, analogues: doses 0.1, 0.5, 1 and 5 μg/kg ip every 2 days for 21 days
Experimental: FIG. 9. […] 1,25D (dose of 0.3 μg/kg) and analogues (doses of 0.1, 0.5, 1 and 5 μg/kg) were injected intraperitoneally every 2 days for 21 days. After treatment the calcium levels in the serum were evaluated and the values were represented as mean±SD in […].
as §1

[4] = Body weight of mice in the dose-response assay; format: in vivo; conditions: mice, 0.1, 0.5, 1 and 5 μg/kg ip every 2 days for 21 days
Experimental: FIG. 10. […] 1,25D (dose of 0.3 μg/kg) and analogues (doses of 0.1, 0.5, 1 and 5 μg/kg) were injected intraperitoneally every 2 days for 21 days. Animals were weighed every two days during treatment. The values were represented as mean±SD in […].
In this experiment, also the weight of the animals was quantified to determine whether there was any modification throughout the treatment.

MCF-7-Luc cells = experiment: In vivo anti-tumour activity, MCF-7-Luc tumours in SCID mice; conditions: 5 μ/kg ip every 2 days for 28 days, p≦0.05
Experimental: FIG. 12. In this figure the results obtained by treating a group of 32 mice with the analogue PG136 after being injected with MCF-7-Luc cells are shown.
(§2) In order to study the anti-tumour activity of the analogue PG136 in vivo, 32 immunosuppressed CB17-Prkdc^scid 8 weeks old female mice were used, called SCID (PRBB, Barcelona, Spain). These mice were injected subcutaneously with 5×10^6 breast tumour cells MCF-7 and MDA-MB-231 stably transfected with plasmid pcDNA3-Luciferase coding for the gene of the luciferase (called MCF-7-Luc and MDA-MB-231-Luc). Two groups of 8 mice were injected with cells MCF-7-Luc and other 2 groups of 8 mice with MDA-MB-231-Luc cells. Fifteen days after injection, the mice were started to be treated intraperitoneally every 2 days for 28 days with the analogue PG136 at a dose of 5 μ/kg dissolved in sesame oil used as carrier. The control group is treated in the same way and with the same range with sesame oil. Tumour size is determined every seven days once started the treatment using an in vivo imaging system (IVIS, Caliper Life Sciences, Alameda, USA), and the tumour size is calculated using a map of intensities retrieved using the Living Image (Caliper Life Sciences) software. In the case of the 2 groups of mice injected with MDA-MB-231-Luc cells, the experiment continued until day 60 and Kaplan-Meier Survival estimates were made.

MDA-MB-231-Luc cells = experiment: In vivo anti-tumour activity, MDA-MB-231-Luc tumours in SCID mice
From the text: FIG. 13. In this figure the results obtained by treating a group of 32 mice with the analogue PG136 after being injected with MDA-MB-231-Luc cells are shown.
FIG. 14. The survival rate of mice treated with the analogue PG136 after being injected with MDA-MB-231-Luc cells is shown and compared with control mice.
as §2, with “In the case of the 2 groups of mice injected with MDA-MB-231-Luc cells, the experiment continued until day 60 and Kaplan-Meier Survival estimates were made.” left out

PC-3 cells = experiment: MTT proliferation assay, PC-3; conditions: 10^−7 M, 48 hours, 100% control cells
Experimental: Proliferation assay in the PC-3 cell line of human prostate adenocarcinoma. […] The values were plotted in the graphs as mean±SD. As proliferation value, 100% was considered the normal growth of PC-3 cells treated with the carrier in the control.
(§3) The cells were cultured in 90-mm plates in essential culture medium DMEM, supplemented with 10% bovine foetal serum free of steroid hormones, 100 U/ml penicillin, 100 μg/ml streptomycin and 2 mM non-essential amino acids (L-glutamine) at 37° C. in a humid atmosphere O2/CO2 (95/5%).
(§4) The first is an indirect method for determining living cells, wherein the yellow water soluble MTT is reduced in mitochondria, thus generating a purple insoluble product (formazan). […] After this time, the culture medium was removed and 500 μl of dimethylsulfoxide (DMSO) was added to each well to solubilise the formazan incorporated by the cells.

MCF-7 cells [5] = experiment: MTT proliferation assay, MCF-7; conditions: 10^−7 M, 48 hours, 100% control cells
Experimental: Proliferation assay in the MCF-7 cell line of human breast adenocarcinoma. […] The values were plotted in the graphs as mean±SD. As proliferation value, 100% was considered the normal growth of MCF-7 cells treated with the carrier in the control.
as §3
Cell proliferation/toxicity in breast cancer lines was assessed by both incorporation assays of 3-(4,5-dimethylthiazol-2-yl)-2,5-difeniltetrazolium (MTT) bromide and cell culture in three dimensions (3D).
as §4

HaCaT cells = experiment: MTT proliferation assay, HaCaT; conditions: 10^−7 M, 48 hours, 100% control cells
Experimental: Proliferation assay in the HaCaT cell line of human keratinocytes. […] The values were plotted in the graphs as mean±SD. As proliferation value, 100% was considered the normal growth of HaCaT cells treated with the carrier in the control.
as §3, §4

SKOV-3 cells = experiment: MTT proliferation assay, SKOV-3; conditions: 10^−7 M, 48 hours, 100% control cells
Experimental: Proliferation assay in the SKOV-3 cell line of human ovary adenocarcinoma. […] The values were plotted in the graphs as mean±SD. As proliferation value, 100% was considered the normal growth of SKOV-3 cells treated with the carrier in the control.
as §3, §4

[6] = tested on: 24-hydroxylase promoter, CYP24A1 (pCYP24A1-Luc); experiment: Transactivation reporter assay (pCYP24A1-Luc) in MCF-7 cells
Experimental: MCF-7 cells were transfected with the reporter vector of 24-hydroxylase (pCYP24A1-Luc vector) for 24 hours. […] The experiments were performed at least twice. The error bars represent the standard deviation (SD).

## C=C1/C(=C\C=C(/CC)c2cccc(CCCCCC(C)(C)O)c2)C[C@@H](O)C[C@@H]1O [PG-136p, (1R,3S,Z)-5-((E)-3-(3-(6-hydroxy-6-methylheptyl)phenyl)pent-2-enyliden)-4-methylenecyclohexane-1,3-diol]
Vitamin D receptor (VDR); activity relative to natural hormone 1,25D normalised at 100%
  Binding to VDR % relative to 1,25D (100%): 24%
Vitamin D receptor (VDR); competitive displacement, 10^−11 to 10^−5 M
  pIC50: 8.15
MCF-7 cells [1]; 10^−7 M for 7 days
  Three-dimensional growth of MCF-7 spheroids (in words): inhibit the three-dimensional growth, similarly to 1,25D
MCF-7 cells [1]; 10^−7 M, matrigel spheroids, 100% control cells
  Cell proliferation percentage MCF-7 3D: 69%
[2]; 0.3 μg/Kg ip every 2 days for 21 days
  Hypercalcemia (serum calcium versus control): does not produce hypercalcemia
[2]; ip every two days for 21 days, 0.3 μg/kg (table title prints 0.3 mg/kg)
  Calcaemic activity: blood calcium in percentage over that induced by 1,25D: 0%
[3]; 5 μg/kg weight ip every two days for 21 days
  Serum calcium versus control animals (placebo): did not significantly raise serum calcium
[3]
  Serum calcium versus controls, analogues: does not produce hypercalcemia
[3]; listed as PG136p
  Serum calcium versus controls, analogues: None of the two analogues tested (PG136p and PG-403) induces increased serum calcium
[4]
  Body weight versus control animals, analogues: does not change the body weight
[4]; listed as PG136p
  Body weight versus control animals, analogues: did not significantly affect the body weight
MCF-7-Luc cells
  Tumour volume versus control group: smaller volume
MDA-MB-231-Luc cells; 5 μ/kg ip every 2 days for 28 days, p≦0.0001
  Tumour volume versus control group: smaller volume
MDA-MB-231-Luc cells; until day 60, p=0.042
  Survival rate versus control mice (Kaplan-Meier): higher survival rate
PC-3 cells
  Cell proliferation percentage PC-3 2D: 78%
MCF-7 cells [5]
  Cell proliferation percentage MCF-7 2D: 65%
HaCaT cells
  Cell proliferation percentage HaCaT 2D: 68%
SKOV-3 cells
  Cell proliferation percentage SKOV-3 2D: 78%
[6]; Homo sapiens, MCF7, 24 h, read-out: Transcriptional activity EC50
  pEC50: 8.22
[6]; MCF-7 cells, pCYP24A1-Luc
  Transcriptional activity % relative to 1,25D (100%): 33%
